The supplement of paper PMC9938120

What was measured:
Assay in all cases: drug sensitivity score (DSS3, normalised partial AUC of % inhibition dose-response) (DSS (score)); higher = more sensitive (stronger inhibition of viability); extreme values may be limits of the assay
FMOC02_1 = patient-derived low-grade serous ovarian cancer cells; conditions: 72 h; library: FO5A; assay format: 2D, 384-well, CellTiter-Glo
How it was run: (§1)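 Early-passage (under 10) patient-derived ovarian cancer cells were dispensed onto 384-well flat clear-bottom plates pre-plated with compounds at five concentrations spanning a 10,000-fold range, then incubated 72 h at 37 °C, 5% CO2. Viability was read with CellTiter-Glo, and the data were processed in Breeze. The drug sensitivity score is a partial area under the percent-inhibition dose-response curve divided by the log of the upper asymptote, with higher values meaning greater sensitivity.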

FMOC02_2 = patient-derived low-grade serous ovarian cancer cells; conditions: 72 h; library: FO5A; assay format: 2D, 384-well, CellTiter-Glo
How it was run: as §1

FMOC02_3 = patient-derived low-grade serous ovarian cancer cells; conditions: 72 h; library: FO5A; assay format: 2D, 384-well, CellTiter-Glo
How it was run: as §1

FMOC03 = patient-derived mucinous ovarian cancer cells; conditions: 72 h; library: FO5A; assay format: 2D, 384-well, CellTiter-Glo
How it was run: as §1

FMOC04 = patient-derived high-grade serous ovarian cancer cells; conditions: 72 h; library: FO5A; assay format: 2D, 384-well, CellTiter-Glo
How it was run: as §1

FMOC06 = patient-derived mucinous ovarian cancer cells; conditions: 72 h; library: FO5A; assay format: 2D, 384-well, CellTiter-Glo
How it was run: as §1

FMOC09 = patient-derived high-grade serous ovarian cancer cells; conditions: 72 h; library: FO5A; assay format: 2D, 384-well, CellTiter-Glo
How it was run: as §1

FMOC11 = patient-derived high-grade serous ovarian cancer cells; conditions: 72 h; library: FO5A; assay format: 2D, 384-well, CellTiter-Glo
How it was run: as §1

FMOC14 = patient-derived high-grade serous ovarian cancer cells; conditions: 72 h; library: FO5A; assay format: 2D, 384-well, CellTiter-Glo
How it was run: as §1

FMOC17 = patient-derived low-grade serous ovarian cancer cells; conditions: 72 h; library: FO5A; assay format: 2D, 384-well, CellTiter-Glo
How it was run: as §1

FMOC22 = patient-derived mucinous ovarian cancer cells; conditions: 72 h; library: FO5A; assay format: 2D, 384-well, CellTiter-Glo
How it was run: as §1

FMOC24 = patient-derived high-grade serous ovarian cancer cells; conditions: 72 h; library: FO5A; assay format: 2D, 384-well, CellTiter-Glo
How it was run: as §1

FMOC25_1 = patient-derived low-grade serous ovarian cancer cells; conditions: 72 h; library: FO4B; assay format: 2D, 384-well, CellTiter-Glo
How it was run: as §1

FMOC25_2 = patient-derived low-grade serous ovarian cancer cells; conditions: 72 h; library: FO5A; assay format: 2D, 384-well, CellTiter-Glo
How it was run: as §1

FMOC27 = patient-derived low-grade serous ovarian cancer cells; conditions: 72 h; library: FO5A; assay format: 2D, 384-well, CellTiter-Glo
How it was run: as §1

FMOC28 = patient-derived low-grade serous ovarian cancer cells; conditions: 72 h; library: FO5A; assay format: 2D, 384-well, CellTiter-Glo
How it was run: as §1

Structure (SMILES): CO[C@H]1C[C@@H]2CC[C@@H](C)[C@@](O)(O2)C(=O)C(=O)N2CCCC[C@H]2C(=O)O[C@H]([C@H](C)C[C@@H]2CC[C@@H](O)[C@H](OC)C2)CC(=O)[C@H](C)/C=C(\C)[C@@H](O)[C@@H](OC)C(=O)[C@H](C)C[C@H](C)/C=C/C=C/C=C/1C [Sirolimus]
- drug sensitivity score (FMOC02_1): 6.3
- drug sensitivity score (FMOC02_2): 7.3
- drug sensitivity score (FMOC02_3): 10
- drug sensitivity score (FMOC03): 2
- drug sensitivity score (FMOC04): 1.1
- drug sensitivity score (FMOC06): 2.5
- drug sensitivity score (FMOC09): 1.4
- drug sensitivity score (FMOC11): 2.1
- drug sensitivity score (FMOC14): 1
- drug sensitivity score (FMOC17): 4.7
- drug sensitivity score (FMOC22): 4
- drug sensitivity score (FMOC24): 6.1
- drug sensitivity score (FMOC25_1): 8.9
- drug sensitivity score (FMOC25_2): 6.3
- drug sensitivity score (FMOC27): 3.1
- drug sensitivity score (FMOC28): 3.3

Structure (SMILES): N#Cc1ccc(COC[C@H]2O[C@@H](n3c(NCc4ccc(Cl)c(Cl)c4)nc4c(N)ncnc43)[C@H](O)[C@@H]2O)cc1
- drug sensitivity score (FMOC02_1): 7.6
- drug sensitivity score (FMOC02_2): 2.6
- drug sensitivity score (FMOC02_3): 6.6
- drug sensitivity score (FMOC03): 6
- drug sensitivity score (FMOC04): 0.95
- drug sensitivity score (FMOC06): 5.5
- drug sensitivity score (FMOC09): 2
- drug sensitivity score (FMOC11): 3.2
- drug sensitivity score (FMOC14): 2.5
- drug sensitivity score (FMOC17): 5.6
- drug sensitivity score (FMOC22): 4.2
- drug sensitivity score (FMOC24): 2.1
- drug sensitivity score (FMOC25_1): 6.6
- drug sensitivity score (FMOC25_2): 0
- drug sensitivity score (FMOC27): 1.6
- drug sensitivity score (FMOC28): 0

Structure (SMILES): O=C1CCC(N2C(=O)c3ccccc3C2=O)C(=O)N1 (stereo unspecified) [Thalidomide]
- drug sensitivity score (FMOC02_1): 0
- drug sensitivity score (FMOC02_2): 0
- drug sensitivity score (FMOC02_3): 0
- drug sensitivity score (FMOC03): 0
- drug sensitivity score (FMOC04): 0
- drug sensitivity score (FMOC06): 0
- drug sensitivity score (FMOC09): 0
- drug sensitivity score (FMOC11): 0
- drug sensitivity score (FMOC14): 0
- drug sensitivity score (FMOC17): 0
- drug sensitivity score (FMOC22): 0
- drug sensitivity score (FMOC24): 0
- drug sensitivity score (FMOC25_1): 0
- drug sensitivity score (FMOC25_2): 0
- drug sensitivity score (FMOC27): 0.1
- drug sensitivity score (FMOC28): 0

Structure (SMILES): Nc1ncn([C@H]2C[C@H](O)[C@@H](CO)O2)c(=O)n1 [Decitabine]
- drug sensitivity score (FMOC02_1): 0.3
- drug sensitivity score (FMOC02_2): 1.4
- drug sensitivity score (FMOC02_3): 0.6
- drug sensitivity score (FMOC03): 0
- drug sensitivity score (FMOC04): 0
- drug sensitivity score (FMOC06): 0.4
- drug sensitivity score (FMOC09): 0
- drug sensitivity score (FMOC11): 5.3
- drug sensitivity score (FMOC14): 0
- drug sensitivity score (FMOC17): 0.9
- drug sensitivity score (FMOC22): 0.1
- drug sensitivity score (FMOC24): 7.4
- drug sensitivity score (FMOC25_1): 0
- drug sensitivity score (FMOC25_2): 1.5
- drug sensitivity score (FMOC27): 7.5
- drug sensitivity score (FMOC28): 0

Structure (SMILES): CN1CCN(c2nc(C3=C(c4c[nH]c5ccccc45)C(=O)NC3=O)c3ccccc3n2)CC1 [Sotrastaurin]
- drug sensitivity score (FMOC02_1): 3
- drug sensitivity score (FMOC02_2): 4.3
- drug sensitivity score (FMOC02_3): 9.9
- drug sensitivity score (FMOC03): 0
- drug sensitivity score (FMOC04): 0
- drug sensitivity score (FMOC06): 0
- drug sensitivity score (FMOC09): 0
- drug sensitivity score (FMOC11): 2.1
- drug sensitivity score (FMOC14): 0
- drug sensitivity score (FMOC17): 3.9
- drug sensitivity score (FMOC22): 0
- drug sensitivity score (FMOC24): 1.85
- drug sensitivity score (FMOC25_1): 0
- drug sensitivity score (FMOC25_2): 0
- drug sensitivity score (FMOC27): 0
- drug sensitivity score (FMOC28): 0

Structure (SMILES): C=CC[C@@H]1/C=C(\C)C[C@H](C)C[C@H](OC)[C@H]2O[C@@](O)(C(=O)C(=O)N3CCCC[C@H]3C(=O)O[C@H](/C(C)=C/[C@@H]3CC[C@@H](O)[C@H](OC)C3)[C@H](C)[C@@H](O)CC1=O)[C@H](C)C[C@@H]2OC [Tacrolimus]
- drug sensitivity score (FMOC02_1): 0.4
- drug sensitivity score (FMOC02_2): 1.9
- drug sensitivity score (FMOC02_3): 1.9
- drug sensitivity score (FMOC03): 0
- drug sensitivity score (FMOC04): 0
- drug sensitivity score (FMOC06): 0
- drug sensitivity score (FMOC09): 0
- drug sensitivity score (FMOC11): 1.4
- drug sensitivity score (FMOC14): 1.4
- drug sensitivity score (FMOC17): 0.9
- drug sensitivity score (FMOC22): 0.1
- drug sensitivity score (FMOC24): 5
- drug sensitivity score (FMOC25_1): 0
- drug sensitivity score (FMOC25_2): 0
- drug sensitivity score (FMOC27): 1.7
- drug sensitivity score (FMOC28): 0.8

Structure (SMILES): Cc1cccc(-c2[nH]c(CNc3ccccc3F)nc2-c2ccc3ncnn3c2)n1 [TEW-7197]
- drug sensitivity score (FMOC02_1): 0
- drug sensitivity score (FMOC02_2): 1.8
- drug sensitivity score (FMOC02_3): 0.1
- drug sensitivity score (FMOC03): 0
- drug sensitivity score (FMOC04): 0
- drug sensitivity score (FMOC06): 3.9
- drug sensitivity score (FMOC09): 0
- drug sensitivity score (FMOC11): 0.4
- drug sensitivity score (FMOC14): 0
- drug sensitivity score (FMOC17): 0
- drug sensitivity score (FMOC22): 0
- drug sensitivity score (FMOC24): 0.85
- drug sensitivity score (FMOC25_1): 0
- drug sensitivity score (FMOC25_2): 0
- drug sensitivity score (FMOC27): 0.2
- drug sensitivity score (FMOC28): 0

Structure (SMILES): CCc1cc2c(cc1N1CCC(N3CCOCC3)CC1)C(C)(C)c1[nH]c3cc(C#N)ccc3c1C2=O [Alectinib]
- drug sensitivity score (FMOC02_1): 1.7
- drug sensitivity score (FMOC02_2): 1.5
- drug sensitivity score (FMOC02_3): 0.6
- drug sensitivity score (FMOC03): 0.3
- drug sensitivity score (FMOC04): 0
- drug sensitivity score (FMOC06): 0.2
- drug sensitivity score (FMOC09): 0
- drug sensitivity score (FMOC11): 0.7
- drug sensitivity score (FMOC14): 0
- drug sensitivity score (FMOC17): 0.8
- drug sensitivity score (FMOC22): 0
- drug sensitivity score (FMOC24): 0.3
- drug sensitivity score (FMOC25_1): 0.1
- drug sensitivity score (FMOC25_2): 0
- drug sensitivity score (FMOC27): 1.2
- drug sensitivity score (FMOC28): 1.7

Structure (SMILES): CCN(c1cc(-c2ccc(CN3CCOCC3)cc2)cc(C(=O)NCc2c(C)cc(C)[nH]c2=O)c1C)C1CCOCC1 [Tazemetostat]
- drug sensitivity score (FMOC02_1): 0
- drug sensitivity score (FMOC02_2): 0
- drug sensitivity score (FMOC02_3): 0.1
- drug sensitivity score (FMOC03): 0
- drug sensitivity score (FMOC04): 0
- drug sensitivity score (FMOC06): 0.5
- drug sensitivity score (FMOC09): 0
- drug sensitivity score (FMOC11): 0
- drug sensitivity score (FMOC14): 0
- drug sensitivity score (FMOC17): 0
- drug sensitivity score (FMOC22): 0
- drug sensitivity score (FMOC24): 0
- drug sensitivity score (FMOC25_1): 0
- drug sensitivity score (FMOC25_2): 0
- drug sensitivity score (FMOC27): 0
- drug sensitivity score (FMOC28): 0

Structure (SMILES): Nc1cccc2c1C(=O)N(C1CCC(=O)NC1=O)C2=O (stereo unspecified) [Pomalidomide]
- drug sensitivity score (FMOC02_1): 0
- drug sensitivity score (FMOC02_2): 0
- drug sensitivity score (FMOC02_3): 0
- drug sensitivity score (FMOC03): 0
- drug sensitivity score (FMOC04): 0
- drug sensitivity score (FMOC06): 0
- drug sensitivity score (FMOC09): 0
- drug sensitivity score (FMOC11): 0
- drug sensitivity score (FMOC14): 0
- drug sensitivity score (FMOC17): 0
- drug sensitivity score (FMOC22): 0
- drug sensitivity score (FMOC24): 0
- drug sensitivity score (FMOC25_1): 0
- drug sensitivity score (FMOC25_2): 0
- drug sensitivity score (FMOC27): 0
- drug sensitivity score (FMOC28): 0

Structure (SMILES): CC[C@@H]1C(=O)OC[C@@H]1Cc1cncn1C [Pilocarpine]
- drug sensitivity score (FMOC02_1): 0
- drug sensitivity score (FMOC02_2): 0.3
- drug sensitivity score (FMOC02_3): 0
- drug sensitivity score (FMOC03): 0
- drug sensitivity score (FMOC04): 0
- drug sensitivity score (FMOC06): 0
- drug sensitivity score (FMOC09): 0
- drug sensitivity score (FMOC11): 0
- drug sensitivity score (FMOC14): 0
- drug sensitivity score (FMOC17): 0
- drug sensitivity score (FMOC22): 0
- drug sensitivity score (FMOC24): 2.65
- drug sensitivity score (FMOC25_1): 0
- drug sensitivity score (FMOC25_2): 0
- drug sensitivity score (FMOC27): 0
- drug sensitivity score (FMOC28): 0
